Measurements reported in ChEMBL document CHEMBL4808148, “HDAC6 screening dataset using tau-based substrate in an enzymatic assay yields selective inhibitors and activators” (2021).

What was measured:
[1] = target: T1, Protein deacetylase HDAC6 (Homo sapiens, UniProt Q9UBN7)
T1 sequence (Q9UBN7 whole entry): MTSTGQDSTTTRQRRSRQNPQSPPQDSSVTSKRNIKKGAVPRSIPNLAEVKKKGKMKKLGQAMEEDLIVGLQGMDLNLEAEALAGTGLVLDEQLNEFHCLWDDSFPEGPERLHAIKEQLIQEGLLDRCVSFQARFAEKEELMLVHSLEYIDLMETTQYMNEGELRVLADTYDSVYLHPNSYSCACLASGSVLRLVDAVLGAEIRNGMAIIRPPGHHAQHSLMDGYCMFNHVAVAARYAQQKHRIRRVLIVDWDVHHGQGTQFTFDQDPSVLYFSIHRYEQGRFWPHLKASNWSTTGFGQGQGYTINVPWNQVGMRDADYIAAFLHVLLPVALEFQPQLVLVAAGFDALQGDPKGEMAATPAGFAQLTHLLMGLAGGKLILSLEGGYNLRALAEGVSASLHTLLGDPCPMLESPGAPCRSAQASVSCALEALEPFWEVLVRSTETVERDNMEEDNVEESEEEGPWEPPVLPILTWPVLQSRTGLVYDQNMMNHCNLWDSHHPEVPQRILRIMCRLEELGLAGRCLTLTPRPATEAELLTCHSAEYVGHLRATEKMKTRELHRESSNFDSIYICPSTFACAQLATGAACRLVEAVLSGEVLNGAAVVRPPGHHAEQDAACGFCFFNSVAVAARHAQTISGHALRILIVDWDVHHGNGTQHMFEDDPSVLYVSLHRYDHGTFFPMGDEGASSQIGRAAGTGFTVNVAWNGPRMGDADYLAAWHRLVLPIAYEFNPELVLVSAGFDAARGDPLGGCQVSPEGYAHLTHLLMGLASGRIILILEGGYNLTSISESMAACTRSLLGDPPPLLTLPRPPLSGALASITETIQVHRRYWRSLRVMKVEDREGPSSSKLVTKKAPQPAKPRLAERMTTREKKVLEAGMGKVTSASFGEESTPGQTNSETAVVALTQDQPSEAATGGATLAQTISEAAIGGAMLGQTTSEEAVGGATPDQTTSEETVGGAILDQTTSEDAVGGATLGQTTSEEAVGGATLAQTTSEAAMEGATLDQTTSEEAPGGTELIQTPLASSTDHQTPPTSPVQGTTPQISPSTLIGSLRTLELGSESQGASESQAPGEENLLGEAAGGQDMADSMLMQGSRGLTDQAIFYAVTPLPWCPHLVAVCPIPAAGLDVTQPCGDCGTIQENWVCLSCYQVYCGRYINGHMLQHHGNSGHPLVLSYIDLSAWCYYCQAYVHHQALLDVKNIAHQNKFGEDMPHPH

[2] = target: Protein deacetylase HDAC6 (Homo sapiens) (UniProt Q9UBN7); conditions: at 10 µM
[3] = target: T1, Protein deacetylase HDAC6; remark: listed apart in the source
[4] = target: T2, Protein deacetylase HDAC6 (Homo sapiens) (UniProt Q9UBN7); conditions: at 10 µM; remark: listed apart in the source
T2 sequence (whole entry): T1 sequence (Q9UBN7 whole entry)

Compound: FLUPENTIXOL [listing 1 of 2 here]
- IC50 [1]: 1550 nM

Compound: FLUPENTIXOL [listing 2 of 2 here]
- inhibition [2]: 89.4%

Compound: PHENYLMERCURIC ACETATE
- inhibition [2]: 60.2%

Compound: CNC(=O)c1ccccc1Sc1ccc2c(/C=C/c3ccccn3)n[nH]c2c1 [AXITINIB]
- IC50 [3]: 404 nM
- inhibition [4]: 103%

Compound: Cc1nc2c(OCc3ccccc3)cccn2c1CC#N
- IC50 [3]: 355 nM
- inhibition [4]: 83.6%

Compound: COC(=O)CC1CC(c2ccc(O)cc2)=NO1 (stereo not drawn)
- IC50 [3]: 986 nM
- inhibition [4]: 79.7%

Compound: O=C(/C=C/c1ccc(O)c(O)c1)c1ccc(O)cc1O [BUTEIN]
- IC50 [3]: 2150 nM
- inhibition [4]: 96.9%

Compound: CCN(CC)c1ccc(C(=C2C=CC(=[N+](CC)CC)C=C2)c2ccccc2)cc1
- IC50 [3]: 1280 nM
- inhibition [4]: 105%
